# Calls of active or inactive are those of the source. The rule behind the calls is not given here.
# Experiments:
# HCT-116 [1] = experiment: cells; conditions: Homo sapiens
# Description: (§1) Antiproliferative activity against human HCT116 cells by MTT assay
# T-24 = experiment: Induction of histone H4 hyperacetylation in human T24 cells after 16 hrs by immunoblotting; assay type: functional, cell-based; conditions: for EC50: T-24, 16 h
# HMEC [2] = experiment: Antiproliferative activity against HMEC by MTT assay; assay type: cell-based; conditions: Homo sapiens
# Histone deacetylase 1 = Histone deacetylase 1 (Homo sapiens, UniProt Q13547); experiment: Inhibition of human recombinant HDAC1
# Sequence of Histone deacetylase 1 (Q13547 whole entry): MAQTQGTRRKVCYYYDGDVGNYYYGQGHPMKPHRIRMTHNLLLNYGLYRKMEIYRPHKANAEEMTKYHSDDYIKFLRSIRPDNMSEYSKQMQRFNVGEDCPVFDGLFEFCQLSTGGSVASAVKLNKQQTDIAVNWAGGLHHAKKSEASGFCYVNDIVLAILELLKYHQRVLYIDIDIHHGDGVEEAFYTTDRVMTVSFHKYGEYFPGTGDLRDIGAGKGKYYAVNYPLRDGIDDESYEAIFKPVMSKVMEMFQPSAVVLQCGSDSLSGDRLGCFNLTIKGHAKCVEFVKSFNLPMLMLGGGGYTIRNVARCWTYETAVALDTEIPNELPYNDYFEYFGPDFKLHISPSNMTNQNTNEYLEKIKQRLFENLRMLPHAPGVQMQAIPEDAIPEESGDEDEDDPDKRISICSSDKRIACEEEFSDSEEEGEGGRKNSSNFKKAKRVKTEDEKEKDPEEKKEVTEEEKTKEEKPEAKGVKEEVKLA
# HCT-116 [3] = experiment: Induction of apoptosis in human HCT116 cells; assay type: functional, cell-based
# HMEC [4] = experiment: Selectivity ratio of IC50 for HMEC to IC50 for human HCT116 cells
# HCT-116 [5] = experiment: Induction of p21WAF1/CIP1 expression in human HCT116 cells assessed as […] after 16 hrs by luciferase assay; assay type: functional, cell-based; conditions: for EC50: HCT-116, 16 h
# HCT-116 [6] = conditions: Homo sapiens
# Description: as §1
Compound,IC50 (HCT-116 [1]) [nM],Activity (T-24),IC50 (HMEC [2]) [µM],IC50 (Histone deacetylase 1) [nM],Activity (HCT-116 [3]),Ratio IC50 (HMEC [4]),EC50 (HCT-116 [5]) [nM],EC50 (T-24) [nM],Activity (HCT-116 [5]),Activity (HCT-116 [6])
CN1CCN(c2ccc(-c3ccnc(NCc4ccc(C(=O)Nc5ccccc5N)cc4)n3)cn2)CC1,200,inactive,5,80,Active,>20,200,,,
Nc1ccccc1NC(=O)c1ccc(CNc2nccc(-c3ccc(CN4CCOCC4)cc3)n2)cc1,100,,27,90,,>30,500,1000,,
CSc1nc(NCc2ccc(C(=O)Nc3ccccc3N)cc2)cc(-c2cccnc2)n1,100,,13,250,,,600,1000,,
Nc1ccccc1NC(=O)c1cccc(CNc2nccc(-c3cccnc3)n2)c1,43000,,,> 20000,,,,,,
O=C(Nc1ccccc1)c1ccc(CNc2nccc(-c3cccnc3)n2)cc1,> 50000,,,> 25000,,,,,,
CN(C)CCOc1cccc(-c2ccnc(NCc3ccc(C(=O)Nc4ccccc4N)cc3)n2)c1,300,,11,130,,>30,,< 1000,inactive,
CC(C)(O)c1ccc(-c2ccnc(NCc3ccc(C(=O)Nc4ccccc4N)cc3)n2)cn1,100,,38,230,Active,>20,600,2000,,
Nc1ccccc1NC(=O)c1ccc(CNc2nccc(-c3ccsc3)n2)cc1,70,,7,70,,>30,300,3000,,
Nc1ccccc1NC(=O)c1ccc(CNc2cccc(-c3cccnc3)n2)cc1,600,,> 50,180,Active,,600,1000,,
Nc1ccccc1NC(=O)c1ccc(CNc2cncc(-c3cccnc3)n2)cc1,300,,16,110,Active,>15,400,1000,,
Nc1ccccc1NC(=O)c1ccc(CNc2ccnc(-c3cccnc3)n2)cc1,400,,11,200,Active,,600,< 1000,,
Nc1ccccc1NC(=O)c1ccc(Nc2nccc(-c3cccnc3)n2)cc1,2000,,,2000,,,,,,
Nc1ccccc1NC(=O)c1ccc(CNc2nccc(-c3cccnc3)n2)cc1 [MOCETINOSTAT],300,,21,,,,600,< 1000,,
Nc1cc(-c2cccnc2)nc(NCc2ccc(C(=O)Nc3ccccc3N)cc2)n1,200,,14,170,,,200,1000,,
N#Cc1ccc(-c2ccnc(NCc3ccc(C(=O)Nc4ccccc4N)cc3)n2)cn1,400,,> 50,160,Active,>20,700,1000,,
Nc1ccccc1NC(=O)c1ccc(CNc2cccc(-c3cccnc3)c2)cc1,300,,5,90,Active,>15,600,< 1000,,

Compound,IC50 (HCT-116 [1]) [nM],Activity (T-24),IC50 (HMEC [2]) [µM],IC50 (Histone deacetylase 1) [nM],Activity (HCT-116 [3]),Ratio IC50 (HMEC [4]),EC50 (HCT-116 [5]) [nM],EC50 (T-24) [nM],Activity (HCT-116 [5]),Activity (HCT-116 [6])
CSc1ccc(-c2ccnc(NCc3ccc(C(=O)Nc4ccccc4N)cc3)n2)cn1,300,,6,90,Active,>20,300,1000,,
Nc1ccccc1NC(=O)/C=C/c1ccc(CNc2nccc(-c3cccnc3)n2)cc1,2000,,,1200,,,,,,
CN(C)CCOc1ccc(-c2ccnc(NCc3ccc(C(=O)Nc4ccccc4N)cc3)n2)cc1,90,,10,120,,>30,100,< 1000,,
Nc1ccccc1NC(=O)c1ccc(CNc2nccc(-c3cccc(OCCN4CCOCC4)c3)n2)cc1,300,,41,140,,>30,400,1000,,
Nc1ccccc1NC(=O)c1ccc(CNc2nccc(-c3cnccn3)n2)cc1,300,,23,190,,>30,600,1000,,
COCOC(C)(C)c1ccc(-c2ccnc(NCc3ccc(C(=O)Nc4ccccc4N)cc3)n2)cn1,100,,49,250,Active,>20,1000,1000,,
Nc1ccccc1NC(=O)c1ccc(CNc2nccc(-c3ccc(N4CCOCC4)nc3)n2)cc1,< 50,,5,50,Active,>20,400,< 1000,,
Nc1ccccc1NC(=O)c1ccc(/C=C/CNc2nccc(-c3cccnc3)n2)cc1,,,,130,,,,,,
Nc1ccccc1NC(=O)c1ccc(CNc2nccc(-c3cc(CO)no3)n2)cc1,800,,> 50,210,,>30,,1000,inactive,
Nc1ccccc1NC(=O)c1ccc(CNc2nccc(-c3nccs3)n2)cc1,,,14,140,,>30,500,< 1000,,inactive
CN(C)C(=O)c1ccc(-c2ccnc(NCc3ccc(C(=O)Nc4ccccc4N)cc3)n2)cn1,300,,> 50,420,Active,>20,900,2000,,
Nc1ccccc1NC(=O)c1ccc(CNc2cc(-c3cccnc3)ncn2)cc1,< 50,,42,70,Active,>15,500,< 1000,,
Nc1ccccc1NC(=O)c1ccc(CNc2nccc(-c3ccc(C(=O)N4CCOCC4)nc3)n2)cc1,1000,inactive,37,250,Active,>20,2000,,,
Nc1ccccc1C(=O)Nc1ccc(CNc2nccc(-c3cccnc3)n2)cc1,25000,,,> 20000,,,,,,
Nc1ccccc1NC(=O)c1ccc(CNc2nccc(-c3ccc(OCCN4CCOCC4)cc3)n2)cc1,100,,8,80,,>30,100,< 1000,,
